The values below come from US10231973B2, “Salts of quinazoline derivative and method for preparing the same” (CHIA TAI TIANQING PHARMACEUTICAL GROUP CO., LTD., priority 2015, dated 2019).

Read-outs that look alike come from different tables or passages of the source.

Data set [1] can be described thus: Bioavailability test, oral suspensions in beagle dogs. It is filed as in vivo. The settings on record: oral suspension in CMC-Na, 5 mg/kg (as compound of Formula I); for Cmax: plasma concentration of compound of Formula I by LC-MS; for AUC0-t: sampling to 48 h. The procedure: Study procedure: Fifteen beagle dogs (7.4˜9.4 kg body weight) were randomly divided into 5 groups, and administered orally suspensions of the compound of Formula I, the maleate, citrate, oxalate and acetate thereof (calculated according to the amount of the compound of Formula I) in CMC-Na (carboxymethylcellulose sodium) at a dosage of 5 mg/kg body weight, respectively.
Chromatographic conditions: methanol as mobile phase A and a 0.1% (v/v) aqueous solution of formic acid as mobile phase B, an isocratic elution A:B=52:48; 0.2 mL/min of a flow rate; 35° C. of column temperature; and SHIMADZU Shim-pack VP-ODS C18 (5.0 μm, 150 mm×2.0 mm I.D., Shimadzu Corporation) as chromatographic column.
Mass spectrometry conditions: ion source: ESI ionization source, scanning in SIM mode, 250° C. of curved desolventizer (CDL) temperature, 200° C. of heating block temperature; 25V of CDL voltage; +1.60 kV of detection voltage; 1.5 L/min of atomization gas flow rate; 2.0 L/min of dry gas flow rate.

Data set [2] deals with NCI-H1975, a human non-small cell lung cancer cell. Description: Anchorage-independent cell proliferation assay, NCI-H1975. It counts as cell-based. The following applies: NCI-H1975, 168 h, soft agarose, 7 days treatment, CellTiter-Blue. Here is the method:
(§1) NCI-H1975, a human non-small cell lung cancer cell, and BT474, a human breast cancer cell line, were cultured in RPIM-1640 or DMEM culture medium supplemented with 10% fetal bovine serum (FBS) in a cell incubator (37° C., 5% CO2). In the test of the compound, culture plates were pre-coated with 0.6% medium, and the cells were resuspended with 0.3% low-melting-point agarose, and then seeded in a 96-well plate at a density of 10,000 cells per well (100 μL). The compound was diluted at a 3-fold gradient, starting from 10 mM. For each of concentration, 2 μL of the solution was taken, and added to 98 μL of culture medium, and then 5.3 μL of the mixture was added to the cell culture medium (0.1% of DMSO final concentration, v/v). After the treatment for one week (7 days), 20 μL of CellTiter-Blue® (Promega) reagent was added, and incubated at 37° C. for 4 hours. Fluorescence signals were read on Envison (Perkin Elmer), and IC50 values of the compound for inhibiting cell proliferation were calculated using GraphPad Prism 5.0.

In data set [3] the test system is BT474, a human breast cancer cell line. Description: Anchorage-independent cell proliferation assay, BT474. It counts as cell-based. The settings on record: BT-474, 168 h, soft agarose, 7 days treatment, CellTiter-Blue. Here is the method:
as §1
For orientation: The colour change of resazurin is a common sign of viable cells or microbes.

In the case of `CC(=O)O` [Acetate], in data set [1] (plasma), the CL/F is 55.2 mL/min/kg, the T1/2 amounted to 9.41 h, the Tmax is 3.33 h and the AUC0-t stood at 20350 ng·h/mL. This compound also yielded a Cmax in data set [1] of 2080 ng/mL.

As to `C=CC(=O)N1CCC(Nc2cc3c(Nc4ccc(F)c(Cl)c4)ncnc3cc2OC)CC1` [Example 1, N^6-(1-acryloylpiperidin-4-yl)-N^4-(3-chloro-4-fluorophenyl)-7-methoxyquinazoline-4,6-diamine], the Vd/F in data set [1] (dog, plasma) is 0.78 ± 1.08 L/kg. The compound further gave a half-life in data set [1] (dog, plasma) of 5.13 ± 2.85 h. In addition, in data set [1] (dog, read-out: Cmax), the Cmax came out at 2820 ± 2830 ng/mL. In data set [1] (dog, plasma, read-out: CL/F (converted)), the CL/F was 77.8 mL/min/kg. In data set [1] (dog, plasma, read-out: Tmax), the Tmax amounted to 3.17 ± 4.19 h. For the same compound, the AUC0-t in data set [1] (dog, plasma, read-out: AUC0-t) amounted to 42100 ng·h/mL. Moreover, the IC50 in data set [2] turned out to be 14 nM; in data set [3], 2.1 nM.

In the case of Citrate, in data set [1] (plasma), the CL/F amounted to 72 mL/min/kg, the T1/2 came to 4.48 h, the Tmax was found to be 1.33 h and the AUC0-t was 10760 ng·h/mL. The same compound came in with a Cmax in data set [1] of 1290 ng/mL.

In the case of Oxalate, in data set [1] (plasma), the CL/F is 23.2 mL/min/kg, the T1/2 amounted to 9.38 h, the Tmax was 1.50 h and the AUC0-t stood at 53200 ng·h/mL. Besides, in data set [1], the Cmax came to 3590 ng/mL.

As a reminder, the Tmax is the time at which the peak concentration occurs. For orientation: Cmax means the peak of the concentration-time curve. For orientation: Vd/F means the volume of distribution divided by bioavailability. For orientation: half-life means the time needed for the level to fall by half in the phase considered. The low end stands for rapid decline, the high end for slow decline. The term IC50 denotes the concentration needed to halve the response being measured. Higher therefore signals a need for much substance.
